{"source": "ChEMBL document CHEMBL1145487", "about": "“Evidence and possible consequences of the phosphorylation of nucleoside reverse transcriptase inhibitors in human red blood cells” (Antimicrob Agents Chemother, 2007)", "key": {"[1]": {"test": "Drug level in human RBC assessed as concentration of Lamivudine triphosphate per 10^6 cells", "format": "ADME, cell-based", "details": "erythrocyte"}, "[2]": {"test": "Drug level in human RBC assessed as concentration of Lamivudine triphosphate per 10^6 cells after 0.3 hrs", "format": "ADME, cell-based", "details": "erythrocyte"}, "PBMC [3]": {"test_system": "PBMC", "test": "Drug level in human PBMC assessed as concentration of Lamivudine triphosphate per 10^6 cells", "format": "ADME, cell-based"}, "PBMC [4]": {"test_system": "PBMC", "test": "Drug level in human PBMC assessed as concentration of Lamivudine triphosphate per 10^6 cells after 0.3 hrs", "format": "ADME, cell-based"}, "[5]": {"test": "Ratio of drug level in human RBC to human PBMC assessed as concentration of Lamivudine triphosphate", "format": "ADME", "details": "erythrocytes"}, "[6]": {"test": "Ratio of drug level in human RBC to human PBMC assessed as concentration of Lamivudine triphosphate after 0.3 hrs", "format": "ADME", "details": "erythrocytes"}, "[7]": {"test": "Drug level in human RBC assessed as concentration of tenofovir diphosphate per 10^6 cells after 11.9 hrs", "format": "ADME, cell-based", "details": "erythrocyte"}, "[8]": {"test": "Drug level in human RBC assessed as concentration of tenofovir diphosphate per 10^6 cells after 13.3 hrs", "format": "ADME, cell-based", "details": "erythrocyte"}, "[9]": {"test": "Drug level in human RBC assessed as concentration of tenofovir diphosphate per 10^6 cells after 0.8 hrs", "format": "ADME, cell-based", "details": "erythrocyte"}, "[10]": {"test": "Drug level in human RBC assessed as concentration of tenofovir diphosphate per 10^6 cells after 14.3 hrs", "format": "ADME, cell-based", "details": "erythrocyte"}, "[11]": {"test": "Drug level in human RBC assessed as concentration of tenofovir diphosphate per 10^6 cells after 13.5 hrs", "format": "ADME, cell-based", "details": "erythrocyte"}, "PBMC [12]": {"test_system": "PBMC", "test": "Drug level in human PBMC assessed as concentration of tenofovir diphosphate per 10^6 cells after 11.9 hrs", "format": "ADME, cell-based"}, "PBMC [13]": {"test_system": "PBMC", "test": "Drug level in human PBMC assessed as concentration of tenofovir diphosphate per 10^6 cells after 13.9 hrs", "format": "ADME, cell-based"}, "PBMC [14]": {"test_system": "PBMC", "test": "Drug level in human PBMC assessed as concentration of tenofovir diphosphate per 10^6 cells after 0.8 hrs", "format": "ADME, cell-based"}, "PBMC [15]": {"test_system": "PBMC", "test": "Drug level in human PBMC assessed as concentration of tenofovir diphosphate per 10^6 cells after 14.3 hrs", "format": "ADME, cell-based"}, "[16]": {"test": "Ratio of drug level in human RBC to human PBMC assessed as concentration of Lamivudine triphosphate after 0.8 hrs", "format": "ADME", "details": "erythrocytes"}, "[17]": {"test": "Ratio of drug level in human RBC to human PBMC assessed as concentration of Lamivudine triphosphate after 14.3 hrs", "format": "ADME", "details": "erythrocytes"}, "[18]": {"test": "Ratio of drug level in human RBC to human PBMC assessed as concentration of lamivudin triphosphate after 13.5 hrs", "format": "ADME", "details": "erythrocytes"}, "PBMC [19]": {"test_system": "PBMC", "test": "Drug level in non-lysed human PBMC assessed as concentration of tenofovir diphosphate after 2 hrs", "format": "ADME, cell-based"}, "PBMC [20]": {"test_system": "PBMC", "test": "Drug level in non-lysed human PBMC assessed as concentration of tenofovir diphosphate after 9.5 hrs", "format": "ADME, cell-based"}, "PBMC [21]": {"test_system": "PBMC", "test": "Drug level in RBC lysed human PBMC assessed as concentration of tenofovir diphosphate after 2 hrs", "format": "ADME, cell-based"}, "PBMC [22]": {"test_system": "PBMC", "test": "Drug level in RBC lysed human PBMC assessed as concentration of tenofovir diphosphate after 9.5 hrs", "format": "ADME, cell-based"}, "PBMC [23]": {"test_system": "PBMC", "test": "Ratio of drug level in non-lysed human PBMC to RBC lysed human PBMC assessed as concentration of tenofovir diphosphate after 2 hrs", "format": "ADME, cell-based"}, "PBMC [24]": {"test_system": "PBMC", "test": "Ratio of drug level in non-lysed human PBMC to RBC lysed human PBMC assessed as concentration of tenofovir diphosphate after 9.5 hrs", "format": "ADME, cell-based"}, "PBMC [25]": {"test_system": "PBMC", "test": "Drug level in human PBMC assessed as concentration of tenofovir diphosphate per 10^6 cells after 13.5 hrs", "format": "ADME, cell-based"}, "[26]": {"test": "Ratio of drug level in human RBC to human PBMC assessed as concentration of Lamivudine triphosphate after 11.9 hrs", "format": "ADME", "details": "erythrocytes"}, "[27]": {"test": "Ratio of drug level in human RBC to human PBMC assessed as concentration of Lamivudine triphosphate after 13.3 hrs", "format": "ADME", "details": "erythrocytes"}}, "data": [{"smiles": "Nc1ccn([C@@H]2CS[C@H](CO)O2)c(=O)n1", "note": "(single isomer, unassigned) [LAMIVUDINE]", "values": [{"measurement": "Drug uptake", "setting": "[1]", "result": 0.04, "unit": "pmol"}, {"measurement": "Drug uptake", "setting": "[2]", "result": 0.09, "unit": "pmol"}, {"measurement": "Drug uptake", "setting": "PBMC [3]", "result": 11.1, "unit": "pmol"}, {"measurement": "Drug uptake", "setting": "PBMC [4]", "result": 10.5, "unit": "pmol"}, {"measurement": "Ratio", "setting": "[5]", "result": 0.004}, {"measurement": "Ratio", "setting": "[6]", "result": 0.009}]}, {"smiles": "CC(C)OC(=O)OCOP(=O)(CO[C@H](C)Cn1cnc2c(N)ncnc21)OCOC(=O)OC(C)C.O=C(O)/C=C/C(=O)O", "note": "[TENOFOVIR DISOPROXIL FUMARATE]", "values": [{"measurement": "Drug uptake", "setting": "[7]", "result": 143, "unit": "fmol"}, {"measurement": "Drug uptake", "setting": "[8]", "result": 165, "unit": "fmol"}, {"measurement": "Drug uptake", "setting": "[9]", "result": 443, "unit": "fmol"}, {"measurement": "Drug uptake", "setting": "[10]", "result": 73.3, "unit": "fmol"}, {"measurement": "Drug uptake", "setting": "[11]", "result": 245, "unit": "fmol"}, {"measurement": "Drug uptake", "setting": "PBMC [12]", "result": 131, "unit": "fmol"}, {"measurement": "Drug uptake", "setting": "PBMC [13]", "result": 148, "unit": "fmol"}, {"measurement": "Drug uptake", "setting": "PBMC [14]", "result": 226, "unit": "fmol"}, {"measurement": "Drug uptake", "setting": "PBMC [15]", "result": 95.5, "unit": "fmol"}, {"measurement": "Ratio", "setting": "[16]", "result": 2}, {"measurement": "Ratio", "setting": "[17]", "result": 0.8}, {"measurement": "Ratio", "setting": "[18]", "result": 1.2}, {"measurement": "Drug uptake", "setting": "PBMC [19]", "result": 302.6, "unit": "fmol"}, {"measurement": "Drug uptake", "setting": "PBMC [20]", "result": 1287, "unit": "fmol"}, {"measurement": "Drug uptake", "setting": "PBMC [21]", "result": 376.6, "unit": "fmol"}, {"measurement": "Drug uptake", "setting": "PBMC [22]", "result": 182.5, "unit": "fmol"}, {"measurement": "Ratio", "setting": "PBMC [23]", "result": 0.8}, {"measurement": "Ratio", "setting": "PBMC [24]", "result": 7.05}, {"measurement": "Drug uptake", "setting": "PBMC [25]", "result": 202, "unit": "fmol"}, {"measurement": "Ratio", "setting": "[26]", "result": 1.1}, {"measurement": "Ratio", "setting": "[27]", "result": 1.1}]}]}
